# Laboratory results: ChEMBL document CHEMBL1157675, “Anti-inflammatory diterpenes from the seeds of Vitex negundo” (Bioorg Med Chem, 2010)
# Calls of active or inactive are those of the source. No cut-off for these calls is given here.
# How the values were obtained:
# [1] = test system: RAW264.7; assay: Antiinflammatory activity in LPS-stimulated mouse RAW264.7 cells assessed as reduction of iNOS protein expression at 5 uM after 24 hrs by Western blot analysis relative to control; type: functional; conditions: RAW264.7, 24 h, values are per cent of control
# [2] = test system: RAW264.7; assay: Antiinflammatory activity in LPS-stimulated mouse RAW264.7 cells assessed as reduction of COX2 protein expression at 5 uM after 24 hrs by Western blot analysis relative to control; type: functional; conditions: for response, % of control at 5 µM: RAW264.7, 24 h, values are per cent of control
# [3] = test system: RAW264.7; assay: Antiinflammatory activity in mouse RAW264.7 cells assessed as inhibition of LPS-induced NO production after 24 hrs by Griess reagent method; type: functional, cell-based; conditions: RAW264.7, 24 h
# [4] = test system: RAW264.7; assay: Cytotoxicity against mouse RAW264.7 cells up to 50 uM after 24 hrs by MTT assay; type: cell-based; conditions: raw264.7, 24 h
# [5] = test system: RAW264.7; assay: Antiinflammatory activity in LPS-stimulated mouse RAW264.7 cells assessed as reduction of COX2 protein expression at 50 uM after 24 hrs by Western blot analysis relative to control; type: functional; conditions: RAW264.7, 24 h
# [6] = test system: RAW264.7; assay: Antiinflammatory activity in LPS-stimulated mouse RAW264.7 cells assessed as reduction of iNOS protein expression at 50 uM after 24 hrs by Western blot analysis relative to control; type: functional; conditions: RAW264.7, 24 h
SMILES,"response, % of control at 5 µM [1]","response, % of control at 5 µM [2]",IC50 [3],Activity [4],inhibition [2],inhibition at 50 µM [5],inhibition at 50 µM [6]
CC(C)c1ccc(O)c(CC[C@@H]2[C@@H](C)CC[C@H](O)C2(C)C)c1 (relative stereo) [NEGUNDOIN F],58.2%,59.7%,1160 nM,Non-toxic,–,–,–
CC(=O)O[C@H]1CC[C@@]2(C)[C@@H](CC[C@@H](C)[C@]23CC[C@@]2(CCO[C@H]2O)O3)C1(C)C (relative stereo) [NEGUNDOIN E],41%,26.4%,230 nM,Non-toxic,–,–,–
CO[C@H]1OC(=O)C[C@@]12CC[C@@]1(O2)[C@H](C)CC[C@H]2C(C)(C)[C@@H](OC(C)=O)CC[C@@]21C (relative stereo) [NEGUNDOIN D],62%,–,4390 nM,Non-toxic,inactive,–,–
CC(=O)O[C@H]1CC[C@@]2(C)[C@@H](CC[C@@H](C)[C@]23CC/C(=C\C(=O)O)O3)C1(C)C (relative stereo) [NEGUNDOIN B],–,–,23400 nM,Non-toxic,–,–,–
COC(=O)/C=C1\CC[C@@]2(O1)[C@H](C)CC[C@H]1C(C)(C)[C@@H](OC(C)=O)CC[C@@]12C (relative stereo) [NEGUNDOIN A],68.2%,–,9830 nM,Non-toxic,inactive,–,–
C=C[C@@]1(C)CCC2C(=C[C@@H](O)[C@H]3C(C)(C)CCC[C@]23CO)C1=O (relative stereo) [NEGUNDOIN G],–,–,700 nM,Non-toxic,–,–,–
CC(=O)O[C@H]1CC[C@@]2(C)[C@@H](CC[C@@H](C)[C@]23CC/C(=C\C=O)O3)C1(C)C (relative stereo) [NEGUNDOIN C],0.4%,2.06%,120 nM,Non-toxic,–,–,–
COc1ccc2c(c1)c(CC(=O)O)c(C)n2C(=O)c1ccc(Cl)cc1 [INDOMETHACIN],–,–,45500 nM,–,–,59.9%,86.5%
